Data from US6087336A, “Peptide derivatives useful in treating autoimmune diseases” (Zeneca Limited, priority 1996, dated 2000).

Key:
HLA-DR3 = test: Variant to Test A: peptide selectivity binding assay, HLA-DR3; design: species or system Human; details: did not bind significantly
Description: (§1) As a variant to test A, the ability of a peptide of the invention to bind to one or more HLA-DR molecules was assessed as follows:
(§2) (i) Purification of HLA-DR Types from Cell Lines
(§3) The method used was a modification of that described by Gorga et al, 1987, J.Biol.Chem. 262, 16087-16094. Human HLA-DR antigens were purified from various cell lines by immunoaffinity chromatography. […] Protein content was determined by a Biorad protein assay and purity by SDS-PAGE electrophoresis. […]
(§4) 200 nM biotin-FHA307-320 in phosphate buffered saline (PBS) was incubated with either purified HLA-DR1, DR2, DR4Dw4, DR4Dw13 or DR4Dw14, (2-20μg/ml) in V-well microtitre plates (Nunc) with or without inhibitor peptides in assay buffer (PBS, 0.01% NP40 (Sigma.)) For DR3 inhibition, 400 nM Biotin-Ahx-(D)Ala-Ala-Ala-Che-lle-Ala-Ala-Ala-Thr-Leu-Lys-Ala-Ala-(D)Ala-OH was incubated with purified DR3 (20 μg/ml.), and incubated as above. After 48 hours, the incubates were treated, and absorbance readings taken as described in Test A. The inhibitory activity of peptides, expressed as IC50 values, was calculated using Microcal Origin software on a PC.

HLA-DR1 = biological target: T1, HLA-DR1 (Homo sapiens, UniProt P01903+P01911, A100R/D57E/F55L/F60I/F76Y/I96L/L162R/M171V/P40L/Q125E/R42F/V115G/Y59C); test: Variant to Test A: peptide selectivity binding assay, HLA-DR1
T1 construct: Human HLA-DR antigens were purified from various cell lines; endogenous in cells; host or cells: Hom 2 cell line
Description: as §1, §2, §3, §4

HLA-DR4Dw14 = test: Variant to Test A: peptide selectivity binding assay, HLA-DR4Dw14; design: species or system Human
Description: as §1, §2, §3, §4

HLA-DR4Dw4 = biological target: T2, HLA-DR4Dw4 (Homo sapiens, UniProt P01903+P01911, A100K/A169T/F76Y/I96L/K127E/L162R/M171V/N62H/P40V/Q125Y/R42H/S133A/S149N/S66Y/V115G/V209L/W38E); test: Variant to Test A: peptide selectivity binding assay, HLA-DR4Dw4
T2 construct: a cDNA encoding the β chain is cloned into the transfer vector pAcUW1; made in house; host or cells: Sf21 insect cells, double-recombinant baculovirus
Description: as §1, §2, §3, §4

HLA-DR2 = test: Variant to Test A: peptide selectivity binding assay, HLA-DR2; design: species or system Human
Description: as §1, §2, §3, §4

## Phv-Ala-Arg-Ala-IIb-Ala-Arg-Ala-Papa-NH2 [Example 23]
HLA-DR3
  IC50: > 100 µM
HLA-DR1
  binding to HLA-DR1: bind significantly
HLA-DR4Dw14
  binding to HLA-DR4Dw14: bind significantly
HLA-DR4Dw4
  binding to HLA-DR4Dw4: bind significantly
HLA-DR2
  binding to HLA-DR2: bind significantly
